Set-up in all cases: scale not given: the % may be the effect or the level left
Series [1] concerns the target T1, ATP-binding cassette sub-family C member 4 (Homo sapiens, UniProt O15439).
T1 sequence (O15439 whole entry): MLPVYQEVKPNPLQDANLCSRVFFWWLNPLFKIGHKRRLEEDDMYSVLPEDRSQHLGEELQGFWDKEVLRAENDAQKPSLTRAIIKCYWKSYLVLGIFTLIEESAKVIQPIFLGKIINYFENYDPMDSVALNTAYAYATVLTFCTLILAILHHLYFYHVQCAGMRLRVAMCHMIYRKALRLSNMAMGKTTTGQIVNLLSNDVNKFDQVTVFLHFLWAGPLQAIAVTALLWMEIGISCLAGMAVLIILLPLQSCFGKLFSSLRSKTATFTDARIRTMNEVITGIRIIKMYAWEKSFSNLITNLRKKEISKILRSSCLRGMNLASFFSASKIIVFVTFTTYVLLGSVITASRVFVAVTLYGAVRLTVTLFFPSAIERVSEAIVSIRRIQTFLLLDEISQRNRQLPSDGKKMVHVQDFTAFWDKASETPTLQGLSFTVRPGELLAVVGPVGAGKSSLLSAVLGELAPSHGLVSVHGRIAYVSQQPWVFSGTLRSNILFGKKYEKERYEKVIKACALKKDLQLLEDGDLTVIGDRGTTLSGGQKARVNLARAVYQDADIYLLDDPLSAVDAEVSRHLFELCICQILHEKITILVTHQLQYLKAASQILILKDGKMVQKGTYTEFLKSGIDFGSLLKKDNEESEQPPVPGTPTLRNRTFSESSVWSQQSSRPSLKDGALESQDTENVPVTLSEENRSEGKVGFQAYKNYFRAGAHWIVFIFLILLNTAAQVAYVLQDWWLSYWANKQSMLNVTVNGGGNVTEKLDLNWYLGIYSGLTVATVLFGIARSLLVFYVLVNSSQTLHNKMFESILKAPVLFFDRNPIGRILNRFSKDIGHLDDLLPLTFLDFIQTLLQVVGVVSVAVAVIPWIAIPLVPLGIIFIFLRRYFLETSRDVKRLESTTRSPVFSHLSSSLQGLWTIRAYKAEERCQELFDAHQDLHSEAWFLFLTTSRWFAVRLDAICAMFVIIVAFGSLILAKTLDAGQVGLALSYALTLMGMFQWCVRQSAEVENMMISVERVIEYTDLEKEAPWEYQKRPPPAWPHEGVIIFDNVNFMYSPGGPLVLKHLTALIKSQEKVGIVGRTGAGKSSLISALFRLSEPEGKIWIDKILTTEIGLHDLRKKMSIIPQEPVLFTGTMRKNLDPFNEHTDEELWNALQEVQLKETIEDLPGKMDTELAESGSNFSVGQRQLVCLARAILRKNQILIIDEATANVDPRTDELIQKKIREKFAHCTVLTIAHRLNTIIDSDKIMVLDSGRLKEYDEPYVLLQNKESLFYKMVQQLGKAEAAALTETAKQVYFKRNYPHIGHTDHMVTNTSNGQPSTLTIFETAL
Put plainly: TP_TRANSPORTER: inhibition of E217betaG in the presence of Flurbiprofen at a concentration of 50uM in membrane vesicles from MRP4-expressing Sf9 cells. It counts as functional, cell membranes, Membrane vesicle. The following applies: sf9, 50 µM.

The target of series [2] is T1, ATP-binding cassette sub-family C member 4. Put plainly: TP_TRANSPORTER: inhibition of E217betaG in the presence of Indomethacin at a concentration of 50uM in membrane vesicles from MRP4-expressing Sf9 cells. It counts as functional, cell membranes, Membrane vesicle. The following applies: sf9, 50 µM.
For series [3], the target named is Multidrug resistance-associated protein 1 (Homo sapiens, UniProt P33527). Put plainly: TP_TRANSPORTER: inhibition of E217betaG in the presence of Indomethacin at a concentration of 50uM in membrane vesicles from MRP1-expressing Sf9 cells. It counts as functional, cell membranes, Membrane vesicle. The following applies: sf9, 50 µM.
Chain of Multidrug resistance-associated protein 1 (P33527 whole entry): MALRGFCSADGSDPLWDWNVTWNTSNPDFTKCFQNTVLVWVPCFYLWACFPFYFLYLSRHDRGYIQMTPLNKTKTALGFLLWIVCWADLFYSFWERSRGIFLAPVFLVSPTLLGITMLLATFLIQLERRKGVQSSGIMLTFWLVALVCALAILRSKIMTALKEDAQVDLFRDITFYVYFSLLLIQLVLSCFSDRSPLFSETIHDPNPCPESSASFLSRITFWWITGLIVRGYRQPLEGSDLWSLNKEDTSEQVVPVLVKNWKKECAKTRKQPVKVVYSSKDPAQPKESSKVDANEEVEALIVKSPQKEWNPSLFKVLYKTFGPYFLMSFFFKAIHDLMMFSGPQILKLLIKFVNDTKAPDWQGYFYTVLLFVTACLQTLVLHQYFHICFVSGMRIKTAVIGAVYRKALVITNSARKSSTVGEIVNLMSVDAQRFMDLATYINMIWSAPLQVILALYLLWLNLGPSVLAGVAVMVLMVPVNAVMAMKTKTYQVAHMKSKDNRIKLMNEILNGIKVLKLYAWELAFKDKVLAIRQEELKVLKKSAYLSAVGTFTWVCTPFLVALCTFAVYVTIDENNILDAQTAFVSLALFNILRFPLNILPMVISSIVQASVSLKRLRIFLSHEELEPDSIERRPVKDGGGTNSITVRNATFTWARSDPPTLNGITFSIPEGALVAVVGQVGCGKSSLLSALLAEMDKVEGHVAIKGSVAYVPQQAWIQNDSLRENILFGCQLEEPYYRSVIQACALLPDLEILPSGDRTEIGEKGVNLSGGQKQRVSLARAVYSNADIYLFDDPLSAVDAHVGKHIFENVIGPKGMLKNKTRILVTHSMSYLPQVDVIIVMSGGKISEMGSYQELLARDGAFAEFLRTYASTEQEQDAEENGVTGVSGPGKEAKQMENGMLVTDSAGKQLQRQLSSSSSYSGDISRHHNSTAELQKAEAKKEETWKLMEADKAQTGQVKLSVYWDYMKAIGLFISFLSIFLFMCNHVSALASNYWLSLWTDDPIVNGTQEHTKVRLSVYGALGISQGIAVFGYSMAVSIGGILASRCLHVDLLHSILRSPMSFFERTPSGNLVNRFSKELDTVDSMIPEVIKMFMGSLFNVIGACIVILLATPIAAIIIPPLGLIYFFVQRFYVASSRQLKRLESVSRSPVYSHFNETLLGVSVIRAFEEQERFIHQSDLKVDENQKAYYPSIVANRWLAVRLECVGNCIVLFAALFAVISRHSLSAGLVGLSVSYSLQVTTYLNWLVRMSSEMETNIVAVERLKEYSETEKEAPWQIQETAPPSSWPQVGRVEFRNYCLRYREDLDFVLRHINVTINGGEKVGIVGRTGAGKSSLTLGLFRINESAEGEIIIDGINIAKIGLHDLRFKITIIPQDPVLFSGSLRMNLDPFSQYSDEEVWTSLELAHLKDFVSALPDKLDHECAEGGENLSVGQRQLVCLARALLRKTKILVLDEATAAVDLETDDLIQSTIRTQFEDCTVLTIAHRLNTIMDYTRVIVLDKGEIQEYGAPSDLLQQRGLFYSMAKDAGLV
For series [4], the target named is Multidrug resistance associated protein (Homo sapiens) (UniProt Q96QA9). In words: TP_TRANSPORTER: inhibition of alaninyl-d4TMP by Thromboxane B2 at a concentration of 20uM in membrane vesicle from MRP3-expressing Sf9 cells. It counts as functional, cell membranes.
Series [5] concerns the target ATP-binding cassette sub-family C member 5 (Homo sapiens, UniProt O15440). Put plainly: TP_TRANSPORTER: inhibition of alaninyl-d4TMP by Thromboxane B2 at a concentration of 20uM in membrane vesicle from MRP5-expressing HEK293 cells. It counts as functional, cell membranes. The following applies: hek293, 20 µM.
Series [6] concerns the target T2, MRP4 (ATP-binding cassette sub-family C member 4) (Homo sapiens, UniProt O15439).
T2 sequence (O15439 whole entry): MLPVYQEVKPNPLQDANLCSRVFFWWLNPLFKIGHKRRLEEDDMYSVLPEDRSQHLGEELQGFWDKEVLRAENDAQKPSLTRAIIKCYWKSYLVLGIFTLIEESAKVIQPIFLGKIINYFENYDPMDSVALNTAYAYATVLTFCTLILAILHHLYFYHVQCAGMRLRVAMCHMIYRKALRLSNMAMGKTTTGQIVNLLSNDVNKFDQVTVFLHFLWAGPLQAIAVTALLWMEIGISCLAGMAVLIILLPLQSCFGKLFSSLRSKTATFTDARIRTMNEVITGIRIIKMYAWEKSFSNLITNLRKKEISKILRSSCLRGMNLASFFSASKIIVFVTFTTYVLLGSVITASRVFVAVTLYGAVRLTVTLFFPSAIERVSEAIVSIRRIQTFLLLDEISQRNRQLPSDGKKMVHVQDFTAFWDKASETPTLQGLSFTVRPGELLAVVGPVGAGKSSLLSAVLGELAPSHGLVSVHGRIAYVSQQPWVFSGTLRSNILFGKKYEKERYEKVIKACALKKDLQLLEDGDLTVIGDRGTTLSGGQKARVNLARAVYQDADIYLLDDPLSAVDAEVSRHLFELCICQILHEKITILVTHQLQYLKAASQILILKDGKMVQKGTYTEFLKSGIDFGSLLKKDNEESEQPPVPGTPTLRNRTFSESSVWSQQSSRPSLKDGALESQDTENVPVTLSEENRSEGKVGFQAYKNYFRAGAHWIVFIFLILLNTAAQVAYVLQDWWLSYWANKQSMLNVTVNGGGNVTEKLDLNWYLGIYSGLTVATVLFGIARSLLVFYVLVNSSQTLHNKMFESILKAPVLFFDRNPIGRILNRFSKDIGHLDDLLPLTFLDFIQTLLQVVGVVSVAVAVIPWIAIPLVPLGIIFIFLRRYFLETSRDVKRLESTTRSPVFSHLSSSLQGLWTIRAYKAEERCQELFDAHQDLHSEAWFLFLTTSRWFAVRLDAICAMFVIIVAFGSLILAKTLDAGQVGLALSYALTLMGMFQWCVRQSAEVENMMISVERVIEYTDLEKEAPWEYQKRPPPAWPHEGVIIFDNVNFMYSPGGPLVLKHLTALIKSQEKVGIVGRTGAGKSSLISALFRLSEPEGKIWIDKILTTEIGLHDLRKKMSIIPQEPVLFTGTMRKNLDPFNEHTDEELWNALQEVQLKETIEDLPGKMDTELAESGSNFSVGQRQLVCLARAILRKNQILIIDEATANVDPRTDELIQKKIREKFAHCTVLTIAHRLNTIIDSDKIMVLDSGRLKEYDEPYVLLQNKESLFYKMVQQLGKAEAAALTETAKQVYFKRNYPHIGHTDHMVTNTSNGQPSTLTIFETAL
Put plainly: TP_TRANSPORTER: inhibition of alaninyl-d4TMP in the presence of Thromboxane B2 at a concentration of 20uM in membrane vesicles from MRP4-expressing Sf9 cells. The series is classed as functional, cell membranes, Membrane vesicle. The following applies: probe alaninyl-d4TMP, read-out: Activity.

Series [7] has as its target MRP1 (Multidrug resistance-associated protein 1) (Homo sapiens, UniProt P33527). In words: TP_TRANSPORTER: inhibition of alaninyl-d4TMP in the presence of Thromboxane B2 at a concentration of 20uM in membrane vesicles from MRP1-expressing Sf9 cells. Particulars: probe alaninyl-d4TMP, read-out: Activity. It counts as functional, cell membranes, Membrane vesicle.
Series [8] concerns the target MRP5 (ATP-binding cassette sub-family C member 5) (Homo sapiens, UniProt O15440). Put plainly: TP_TRANSPORTER: inhibition of alaninyl-d4TMP by Prostaglandin E2 at a concentration of 20uM in membrane vesicle from MRP5-expressing HEK293 cells. Particulars: membrane vesicles from MRP5-expressing HEK293 cells, probe alaninyl-d4TMP, read-out: Activity. It counts as functional, cell membranes.

The target of series [9] is T2, MRP4 (ATP-binding cassette sub-family C member 4). In words: TP_TRANSPORTER: inhibition of E217betaG in the presence of Indoprofen at a concentration of 50uM in membrane vesicles from MRP4-expressing Sf9 cells. It counts as functional, cell membranes, Membrane vesicle. Particulars: probe E217betaG, read-out: Activity.
Series [10] addresses T1, ATP-binding cassette sub-family C member 4. Put plainly: TP_TRANSPORTER: inhibition of E217betaG in the presence of Rofecoxib at a concentration of 100uM in membrane vesicles from MRP4-expressing Sf9 cells. It counts as functional, cell membranes, Membrane vesicle. Particulars: sf9, 100 µM.
Series [11] has the same target. Put plainly: TP_TRANSPORTER: inhibition of E217betaG in the presence of Ketoprofen at a concentration of 50uM in membrane vesicles from MRP4-expressing Sf9 cells. It counts as functional, cell membranes, Membrane vesicle. The following applies: sf9, 50 µM.

Chain of MRP5 (ATP-binding cassette sub-family C member 5) (O15440 whole entry): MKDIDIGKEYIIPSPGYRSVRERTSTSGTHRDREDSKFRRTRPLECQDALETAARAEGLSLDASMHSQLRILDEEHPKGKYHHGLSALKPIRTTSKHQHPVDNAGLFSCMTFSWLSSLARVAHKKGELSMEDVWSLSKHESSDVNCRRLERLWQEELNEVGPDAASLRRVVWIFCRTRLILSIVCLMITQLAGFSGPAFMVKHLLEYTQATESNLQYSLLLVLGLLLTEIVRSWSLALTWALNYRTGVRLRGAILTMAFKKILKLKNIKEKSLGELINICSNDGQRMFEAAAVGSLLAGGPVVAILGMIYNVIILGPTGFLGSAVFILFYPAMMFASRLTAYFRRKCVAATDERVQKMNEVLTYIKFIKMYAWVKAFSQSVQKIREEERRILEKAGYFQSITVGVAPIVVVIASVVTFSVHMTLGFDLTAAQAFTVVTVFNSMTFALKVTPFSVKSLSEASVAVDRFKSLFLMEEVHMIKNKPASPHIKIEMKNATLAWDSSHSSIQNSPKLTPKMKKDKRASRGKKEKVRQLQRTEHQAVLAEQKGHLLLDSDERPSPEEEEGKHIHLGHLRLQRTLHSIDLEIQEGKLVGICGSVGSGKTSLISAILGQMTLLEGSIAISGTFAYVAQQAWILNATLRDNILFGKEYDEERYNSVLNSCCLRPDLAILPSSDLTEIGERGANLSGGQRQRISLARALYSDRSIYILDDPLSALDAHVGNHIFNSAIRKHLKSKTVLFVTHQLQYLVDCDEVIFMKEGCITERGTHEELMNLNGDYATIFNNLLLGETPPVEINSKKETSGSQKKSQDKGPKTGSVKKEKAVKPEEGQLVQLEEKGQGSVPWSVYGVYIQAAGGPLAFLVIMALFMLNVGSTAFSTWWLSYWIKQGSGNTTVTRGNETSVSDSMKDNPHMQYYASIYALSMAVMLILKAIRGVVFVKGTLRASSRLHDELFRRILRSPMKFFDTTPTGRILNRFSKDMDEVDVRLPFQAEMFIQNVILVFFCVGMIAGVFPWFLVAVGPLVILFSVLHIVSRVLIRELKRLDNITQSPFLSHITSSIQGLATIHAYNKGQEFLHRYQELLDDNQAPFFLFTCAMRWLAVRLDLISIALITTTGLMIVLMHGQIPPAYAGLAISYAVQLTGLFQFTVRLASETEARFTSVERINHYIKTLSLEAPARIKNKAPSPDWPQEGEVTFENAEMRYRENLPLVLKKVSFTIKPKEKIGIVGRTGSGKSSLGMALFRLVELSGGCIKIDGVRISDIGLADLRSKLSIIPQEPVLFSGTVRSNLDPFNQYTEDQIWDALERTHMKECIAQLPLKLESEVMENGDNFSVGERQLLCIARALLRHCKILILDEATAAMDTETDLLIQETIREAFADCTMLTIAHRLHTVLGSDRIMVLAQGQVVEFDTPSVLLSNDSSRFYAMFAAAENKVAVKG
Chain of ATP-binding cassette sub-family C member 5 (O15440 whole entry): as above
Chain of MRP1 (Multidrug resistance-associated protein 1) (P33527 whole entry): as the sequence (P33527 whole entry) above

As for `CC(C(=O)O)c1ccc(-c2ccccc2)c(F)c1` (stereo unspecified) [FLURBIPROFEN], the Activity in [1] was 23%.

For `COc1ccc2c(c1)c(CC(=O)O)c(C)n2C(=O)c1ccc(Cl)cc1` [INDOMETHACIN], the Activity in series [2] was 11%; in [3], 56%.

With `CCCCC[C@H](O)/C=C/[C@H]1OC(O)C[C@H](O)[C@@H]1C/C=C\CCCC(=O)O` (stereo partly specified) [THROMBOXANE B2], the figures for the Activity in series [4] and in [5] were 76% and 77%, respectively. Further, the activity at 20 µM in series [6] came to 29%; in series [7] it was 66%.

`CCCCC[C@H](O)/C=C/[C@H]1[C@H](O)CC(=O)[C@@H]1C/C=C\CCCC(=O)O` [DINOPROSTONE]: in series [8], the activity at 20 µM turned out to be 74%.

Take `CC(C(=O)O)c1ccc(N2Cc3ccccc3C2=O)cc1` (stereo unspecified) [INDOPROFEN]: the activity at 50 µM in series [9] is 17%.

For the compound `CS(=O)(=O)c1ccc(C2=C(c3ccccc3)C(=O)OC2)cc1` [ROFECOXIB], the Activity in series [10] came out at 80%.

For `CC(C(=O)O)c1cccc(C(=O)c2ccccc2)c1` (stereo unspecified) [KETOPROFEN], the Activity in [11] is listed as 35%.

Source of the values: ChEMBL document CHEMBL2073947, “The human multidrug resistance protein MRP4 functions as a prostaglandin efflux transporter and is inhibited by nonsteroidal antiinflammatory drugs” (Proc Natl Acad Sci U S A, 2003).
